From patent US9226902B2, “Stabilized transdermal drug delivery system” (Mylan Technologies Inc., priority 2008, dated 2016)

Test: Glass transition temperature (DSC)
Assay type: physicochemical
Settings: amorphous form
Protocol: The glass transition temperature of undispersed amorphous scopolamine is about 10° C.

CN1[C@@H]2C[C@@H](OC(=O)[C@H](CO)c3ccccc3)C[C@H]1[C@@H]1O[C@@H]12 [undispersed amorphous scopolamine, scopolamine]
glass transition temperature (Tg): about 10 °C
